Measurements from ChEMBL document CHEMBL1201862, “PubChem BioAssay data set” (2004).
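Interpolation was linear, between the two tested concentrations surrounding the appropriate level; five concentrations were tested over 48 hours in 96-well plates. GI50: concentration for 50% inhibition of growth.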 The source made the active and inactive calls. Cut-off read from the data, not from the text of the source: active = GI50 up to about 1.1 µM and inactive = higher.

Key:
Test in all cases: growth of human tumour cells (NCI), 48 h
Malme-3M = tested on: Malme-3M
HOP-62 = tested on: HOP-62
A549 = tested on: A549
SNB-19 = tested on: SNB-19
Hs-578T = tested on: Hs-578T
786-0 = tested on: 786-0
SK-MEL-28 = tested on: SK-MEL-28
UACC-257 = tested on: UACC-257
SK-OV-3 = tested on: SK-OV-3
SN12C = tested on: SN12C
NCI-H460 = tested on: NCI-H460
U-251 = tested on: U-251
MCF7 = tested on: MCF7
COLO 205 = tested on: COLO 205
HOP-92 = tested on: HOP-92
NCI/ADR-RES = tested on: NCI/ADR-RES
TK-10 = tested on: TK-10
CAKI-1 = tested on: CAKI-1
SR = tested on: SR

Compound | GI50 (Malme-3M) | GI50 (HOP-62) | GI50 (A549) | GI50 (SNB-19) | GI50 (Hs-578T) | GI50 (786-0) | GI50 (SK-MEL-28) | GI50 (UACC-257) | GI50 (SK-OV-3) | GI50 (SN12C) | GI50 (NCI-H460) | GI50 (U-251) | GI50 (MCF7) | GI50 (COLO 205) | GI50 (HOP-92) | GI50 (NCI/ADR-RES) | GI50 (TK-10) | GI50 (CAKI-1) | GI50 (SR)
O=C(c1ccc(Cl)cc1)N(C(=S)OCCOc1ccccc1)c1ccccc1 | 29 µM (inactive) | 23 µM (inactive) | 16.3 µM (inactive) | 19.2 µM (inactive) | 46.9 µM (inactive) | 18.7 µM (inactive) | 15.8 µM (inactive) | 18.7 µM (inactive) | 36.1 µM (inactive) | 19.3 µM (inactive) | 23.2 µM (inactive) | 16.2 µM (inactive) | 16.1 µM (inactive) | 19.9 µM (inactive) | 3.34 µM (inactive) | 23.9 µM (inactive) | 29.4 µM (inactive) | 17.4 µM (inactive) | –
Cc1c(C(=O)c2ccccc2)[n+]([O-])c2cc(Cl)c(Cl)cc2[n+]1[O-] | – | 15.9 µM (inactive) | 13 µM (inactive) | 16.6 µM (inactive) | 6.34 µM (inactive) | 15.8 µM (inactive) | 14.7 µM (inactive) | 3.17 µM (inactive) | 19.6 µM (inactive) | 15.2 µM (inactive) | 15.9 µM (inactive) | 15.6 µM (inactive) | 10.7 µM (inactive) | 18.1 µM (inactive) | 2.96 µM (inactive) | 17.9 µM (inactive) | 11.5 µM (inactive) | 3.03 µM (inactive) | 1.54 µM (inactive)
CC1=C(O)C(=O)C[C@]2(C)[C@H]3CC=C4[C@@H]5CC(C)(C)CC[C@@H]5C(=O)[C@H](O)[C@@]4(C)[C@]3(C)CC[C@@H]12 | > 50 µM (inactive) | 30.7 µM (inactive) | 24.8 µM (inactive) | > 50 µM (inactive) | 25.1 µM (inactive) | 19.1 µM (inactive) | > 50 µM (inactive) | > 50 µM (inactive) | > 50 µM (inactive) | > 50 µM (inactive) | > 50 µM (inactive) | 27.5 µM (inactive) | > 50 µM (inactive) | > 50 µM (inactive) | 7.36 µM (inactive) | > 50 µM (inactive) | 23.9 µM (inactive) | > 50 µM (inactive) | –
COc1cc(C2c3cc4c(cc3C3OC[C@@H]2C3CO)OCO4)cc(OC)c1OC (some centres not stated) | 67.6 µM (inactive) | – | 44.7 µM (inactive) | 57.3 µM (inactive) | 34.4 µM (inactive) | 43.1 µM (inactive) | > 100 µM (inactive) | 18.2 µM (inactive) | 54.2 µM (inactive) | – | 20.3 µM (inactive) | 34.7 µM (inactive) | 35.2 µM (inactive) | 18.4 µM (inactive) | > 100 µM (inactive) | 20.1 µM (inactive) | 37.5 µM (inactive) | 78.7 µM (inactive) | 13.3 µM (inactive)
COc1cccc(/C=C/C2=NN(c3cccc(S(=O)(=O)O)c3)C3(C2)SCC(=O)N3c2nc3ccccc3s2)c1 (configuration not stated) | 47 µM (inactive) | – | 60.3 µM (inactive) | 52.5 µM (inactive) | 32.7 µM (inactive) | 21 µM (inactive) | > 100 µM (inactive) | 85.7 µM (inactive) | – | 33.3 µM (inactive) | 35.7 µM (inactive) | 30.5 µM (inactive) | 27.6 µM (inactive) | > 100 µM (inactive) | 94.6 µM (inactive) | 53.3 µM (inactive) | 28.8 µM (inactive) | 50.9 µM (inactive) | 23.9 µM (inactive)
CN(c1ccccc1Cl)S(=O)(=O)c1ccccc1 | > 100 µM (inactive) | > 100 µM (inactive) | > 100 µM (inactive) | > 100 µM (inactive) | 68.5 µM (inactive) | > 100 µM (inactive) | > 100 µM (inactive) | > 100 µM (inactive) | 93.1 µM (inactive) | > 100 µM (inactive) | > 100 µM (inactive) | > 100 µM (inactive) | > 100 µM (inactive) | > 100 µM (inactive) | – | > 100 µM (inactive) | > 100 µM (inactive) | > 100 µM (inactive) | 55.8 µM (inactive)
CC(=O)Nc1ccc2c(C(=O)O)c(C)c(O)nc2n1 | 95.7 µM (inactive) | – | > 100 µM (inactive) | 25.5 µM (inactive) | > 100 µM (inactive) | > 100 µM (inactive) | – | > 100 µM (inactive) | > 100 µM (inactive) | > 100 µM (inactive) | > 100 µM (inactive) | 46.9 µM (inactive) | > 100 µM (inactive) | > 100 µM (inactive) | 5.27 µM (inactive) | > 100 µM (inactive) | > 100 µM (inactive) | > 100 µM (inactive) | > 10 µM (inactive)
O=[As](O)(O)c1ccc(/N=N/c2ccc(O)cc2)cc1 | > 100 µM (inactive) | > 100 µM (inactive) | > 100 µM (inactive) | > 100 µM (inactive) | > 100 µM (inactive) | > 100 µM (inactive) | > 100 µM (inactive) | – | > 100 µM (inactive) | > 100 µM (inactive) | > 100 µM (inactive) | > 100 µM (inactive) | > 100 µM (inactive) | > 100 µM (inactive) | > 100 µM (inactive) | > 100 µM (inactive) | > 100 µM (inactive) | > 100 µM (inactive) | –
CC1=CC=C2c3ccccc3C=CN2C(=O)C1 | > 100 µM (inactive) | > 100 µM (inactive) | 41.3 µM (inactive) | 70.5 µM (inactive) | 35.6 µM (inactive) | 60.7 µM (inactive) | 90.4 µM (inactive) | 96.6 µM (inactive) | > 100 µM (inactive) | 63.5 µM (inactive) | 53.2 µM (inactive) | 60.4 µM (inactive) | 45.3 µM (inactive) | 42.5 µM (inactive) | – | 38.7 µM (inactive) | 20.1 µM (inactive) | 56.5 µM (inactive) | 40.7 µM (inactive)
Nc1ncnc2c1ccn2C/C=C/CO | > 100 µM (inactive) | > 100 µM (inactive) | > 100 µM (inactive) | > 100 µM (inactive) | > 100 µM (inactive) | > 100 µM (inactive) | > 100 µM (inactive) | > 100 µM (inactive) | > 100 µM (inactive) | > 100 µM (inactive) | > 100 µM (inactive) | > 100 µM (inactive) | > 100 µM (inactive) | > 100 µM (inactive) | > 100 µM (inactive) | > 100 µM (inactive) | > 100 µM (inactive) | > 100 µM (inactive) | –
C=C1OC(c2ccccc2NC)=NC12CCCCC2 | > 100 µM (inactive) | > 100 µM (inactive) | > 100 µM (inactive) | > 100 µM (inactive) | > 100 µM (inactive) | > 100 µM (inactive) | > 100 µM (inactive) | > 100 µM (inactive) | > 100 µM (inactive) | > 100 µM (inactive) | > 100 µM (inactive) | > 100 µM (inactive) | > 100 µM (inactive) | > 100 µM (inactive) | > 100 µM (inactive) | > 100 µM (inactive) | > 100 µM (inactive) | > 100 µM (inactive) | –
CN1C=Cc2nccc3cc4c(c1c23)OCO4 | 0.118 µM (active) | 1.82 µM (inactive) | 2.81 µM (inactive) | 1.87 µM (inactive) | 13.5 µM (inactive) | 1.61 µM (inactive) | 4.83 µM (inactive) | 2.53 µM (inactive) | 8.39 µM (inactive) | 1.64 µM (inactive) | 0.422 µM (active) | 3.09 µM (inactive) | 3.03 µM (inactive) | 3.18 µM (inactive) | – | 11.9 µM (inactive) | 3.64 µM (inactive) | 0.986 µM (active) | 0.495 µM (active)
CC(NC(=O)C1(N)CCCC1)C(=O)O (configuration not stated) | > 100 µM (inactive) | > 100 µM (inactive) | > 100 µM (inactive) | > 100 µM (inactive) | > 100 µM (inactive) | > 100 µM (inactive) | > 100 µM (inactive) | > 100 µM (inactive) | > 100 µM (inactive) | > 100 µM (inactive) | – | > 100 µM (inactive) | > 100 µM (inactive) | > 100 µM (inactive) | – | > 100 µM (inactive) | > 100 µM (inactive) | > 100 µM (inactive) | > 100 µM (inactive)
CC[C@@H](/C=C\CCC(=O)C[C@H](O)CCC=C(C)C)O[Si](C(C)C)(C(C)C)C(C)C | – | > 100 µM (inactive) | 73.3 µM (inactive) | > 100 µM (inactive) | > 100 µM (inactive) | > 100 µM (inactive) | > 100 µM (inactive) | 85.1 µM (inactive) | > 100 µM (inactive) | > 100 µM (inactive) | > 100 µM (inactive) | > 100 µM (inactive) | 79.4 µM (inactive) | 71.6 µM (inactive) | 81.7 µM (inactive) | > 100 µM (inactive) | > 100 µM (inactive) | > 100 µM (inactive) | 39.4 µM (inactive)
N=C(N)N/N=C/c1c(-c2cc([N+](=O)[O-])c(Cl)cc2Cl)nc2n1CCS2 | 24.5 µM (inactive) | 42.4 µM (inactive) | 32.7 µM (inactive) | 3.87 µM (inactive) | 27.9 µM (inactive) | 32.4 µM (inactive) | 5.16 µM (inactive) | 20.7 µM (inactive) | – | 23.4 µM (inactive) | 27.6 µM (inactive) | 3.21 µM (inactive) | 2.67 µM (inactive) | 2.66 µM (inactive) | 20.7 µM (inactive) | > 100 µM (inactive) | 15.5 µM (inactive) | 40 µM (inactive) | 0.951 µM (active)
CN1C/C(=C\c2cccs2)C2=NN(c3ccccc3)C(c3cccs3)C2C1 (configuration not stated) | – | 11.1 µM (inactive) | 7.33 µM (inactive) | 5.93 µM (inactive) | > 100 µM (inactive) | 3.49 µM (inactive) | > 100 µM (inactive) | 5.92 µM (inactive) | > 73.3 µM (inactive) | 4.39 µM (inactive) | 3.52 µM (inactive) | 12 µM (inactive) | 13.3 µM (inactive) | 5.16 µM (inactive) | – | 3.77 µM (inactive) | 31.6 µM (inactive) | > 72.9 µM (inactive) | 1.71 µM (inactive)
